Results published in patent US20250074905A1, “AKT3 MODULATORS” (Georgiamune Inc., priority 2021, published 2025).

Test system: Foxp3 induction in CD4 conventional T cells (iTreg induction)
Assay: Foxp3 induction assay
Assay type: cell-based, C57/B16 mice
Conditions: T-cell, 72 h; mouse CD4 Tconvs, anti-CD3/anti-CD28, IL2, TGF-β, 3 days of culture, flow cytometry; read-out: IC50 value as measured by the Foxp3 induction assay
Procedure: Sorted or enriched (Miltenyi magnetic separation) CD4 conventional T cells (Tconvs −CD4+/CD25) from C57/B16 mice were used for the induction of iTregs. A 10 µg/mL plate-bound anti-CD3 antibody (50 ul per well for 96-well plate), […] of soluble anti-CD28 antibody, 100 IU/mL of IL2 and 5 ng/mL of TGF-β in absence or presence of different concentrations of drug (usually titrating from 0.01 uM to 10 uM) were used. As negative control for induction, samples without TGF-β were used.
After 3 days of culture in presence of stimulation, TGF-β and drug, cells were stained with fixable live/dead cell stain (Life Technologies, NY) for gating and exclusion of toxic doses. The mouse Foxp3 buffer kit was used to fix and permeabilize cells according to the manufacturer's instructions (BD Bioscience, San Jose, CA). The anti-CD4 antibody and anti-Foxp3 antibody were used to stain the cells. After staining, cells were acquired using flow cytometer.

- IC50: < 1000 nM
SMILES: O=C(Nc1ccc2c(c1)Nc1ccncc1CC2)c1ccc(Nc2ccncc2)cc1 [Compound 1, N-(10,11-dihydro-5H-benzo[b]pyrido[3,4-f]azepin-7-yl)-4-(pyridin-4-ylamino)benzamide]
